Source: paper PMC10128061, “Targeting Sterylglucosidase A to Treat Aspergillus fumigatus Infections” (mBio, 2023)
Where “and” joins values, the source holds several entries; their conditions need not be identical. Equal values may be shown once. Read-outs that look alike come from different tables or passages of the source.

Legend:
[1] = target: A. fumigatus SglA (Aspergillus fumigatus, UniProt Q4WXA7); experiment: Ergosterol 3β-D-glucoside (ErgGlc) hydrolysis by SglA, ergosterol quantified by HPLC; type: biochemical
A. fumigatus SglA, sequence (Q4WXA7 entry or part of it): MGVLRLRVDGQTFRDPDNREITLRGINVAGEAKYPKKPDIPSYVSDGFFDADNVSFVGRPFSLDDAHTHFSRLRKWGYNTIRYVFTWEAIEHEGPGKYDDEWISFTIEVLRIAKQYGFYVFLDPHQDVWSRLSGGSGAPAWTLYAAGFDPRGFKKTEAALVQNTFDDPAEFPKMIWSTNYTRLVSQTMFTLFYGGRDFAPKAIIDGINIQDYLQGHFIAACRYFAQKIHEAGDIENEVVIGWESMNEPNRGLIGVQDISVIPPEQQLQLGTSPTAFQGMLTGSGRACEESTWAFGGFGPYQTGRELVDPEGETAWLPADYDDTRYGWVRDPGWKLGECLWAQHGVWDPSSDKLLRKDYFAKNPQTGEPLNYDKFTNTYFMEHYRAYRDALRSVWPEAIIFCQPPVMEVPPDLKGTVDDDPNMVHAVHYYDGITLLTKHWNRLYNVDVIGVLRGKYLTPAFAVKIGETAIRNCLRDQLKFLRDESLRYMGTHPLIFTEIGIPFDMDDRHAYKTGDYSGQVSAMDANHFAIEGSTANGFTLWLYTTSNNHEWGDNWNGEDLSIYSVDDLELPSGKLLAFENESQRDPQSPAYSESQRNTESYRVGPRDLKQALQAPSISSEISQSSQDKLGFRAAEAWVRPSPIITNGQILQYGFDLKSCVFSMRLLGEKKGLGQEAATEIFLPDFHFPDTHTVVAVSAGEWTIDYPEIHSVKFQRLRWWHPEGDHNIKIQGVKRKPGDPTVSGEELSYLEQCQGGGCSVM
Procedure: We assessed the potential inhibition of SglA enzymatic activity toward ErgGlc by the seven derivatives at concentrations of 0.1, 1, 10, and 100 μM.
A 50-μL volume of wild-type Af SglA containing 10 ng of protein (0.11 pmol) and 50 μL of mixed micelles of lipid and Triton X-100 in 50 mM sodium acetate buffer (pH 5.5) with 150 mM NaCl, 5 mM βME, and 5 mM DTT were mixed and incubated at 37°C for 20 min (ErgGlc; Avanti Polar Lipids). After the incubation period, each reaction was quenched with a 2:1 chloroform-methanol solution, and the organic phase was collected and dried. Then, the lipid content was resuspended in […] methanol and analized by HPLC using Agilent 1260 Infinity II (Agilent Technologies). Total ErgGlc and ergosterol were detected at 282 nm on a C8 column with a flow rate of 0.5 mL/min in methanol-water (90:10) buffered with 1 mM ammonium formate and 0.2% formic acid.

[2] = target: Af SglA (Aspergillus fumigatus, UniProt Q4WXA7); experiment: HTS / resorufin 3β-D-glucopyranoside (ResGlp) enzymatic assay of SglA; type: biochemical; details: primary screen, ResGlp as the substrate, single compounds 0.25 to 4 μM
Af SglA, sequence (Q4WXA7 entry or part of it): as above
Procedure: (§1) Resorufin 3β-D-glucopyranoside (ResGlp; Sigma-Aldrich) enzyme kinetic assays were performed according to methods described by Pereira de Sa et al. ([17]). Reaction buffer contained 50 mM citric acid, 176 mM K2HPO4 (pH 6), 0.01% Tween 20, and 10 mM sodium taurocholate. The reaction was carried out in a black 96-well plate using 0.23 pmol of SglA with 100 μM ResGlp substrate. 10 μL/well of ResGlp was added to each well and the reaction was initiated by adding 20 μL enzyme (0.23 pmol). After incubation at 37°C for 30 min, the fluorescence was read at an excitation of 570 (±10) nm and an emission of 610 (±10) nm on a VersaMax microplate reader from Molecular Devices. A standard curve was prepared with serial dilutions of the free fluorophore, resorufin, in the same volume of assay buffer. All reactions were linear with respect to time and protein concentration, and the pH, temperature, and dimethyl sulfoxide (DMSO) optimal tolerance were verified.
(§2) A ChemBridge DIVERSet-CL library (ChemBridge, San Diego, CA) containing 50,000 compounds was screened to identify small molecules that inhibit Af SglA. The library was prepared in a 96-well plate format containing a cocktail of 10 compounds per well at 1 mM each in 100% DMSO. The cocktail plates were first diluted to 100 μM each (1:10 dilution in Dulbecco’s phosphate-buffered saline [DPBS]), resulting in 10% DMSO. In order to screen the compound cocktails at […] in 1% DMSO in a final reaction volume of 30 μL, an aliquot of 3 μL was added to 17 μL of buffer containing 0.23 pmol of enzyme and the reaction was started by adding 10 μL of 100 μM ResGlp. A negative control without enzyme and positive controls with and without DMSO were prepared. The plates were incubated at 37°C for 30 min. The Z′ factor was used for the assessment of the efficiency of the HTS assay for each plate. Values greater than 0.5 are considered indicators of excellent screening assay quality ([36]).

[3] = system: wild-type Af; experiment: Ergosterol 3-β-D-glucoside accumulation in live cells (LC-MS); type: cell-based, Aspergillus fumigatus; details: 48 h; for ErgGlc accumulation versus control (untreated wild-type Af): 100 and 500 μM
Procedure: Wild-type Af ΔKu80pyrG1a and the mutant Δsgla strain were cultivated in yeast extract-glucose medium (YAG) (2% [wt/vol] glucose, 0.5% [wt/vol] yeast extract, 1× trace elements, 1× amino acid solution, 2% [wt/vol] bacteriological agar) for 48 h at 37°C. High-nitrate salts, trace elements, and amino acid solutions were prepared as previously described ([37]). The medium was supplemented with 1.2 g/L of uracil and uridine (UU), generating YAG+UU medium when the strain ΔKu80pyrG1a was used. After that, the a conidial suspension in water was obtained, and a pellet with 1 × 10^7 conidia was treated in minimal medium broth pH 6.5 (MM or MM+UU) (1% [wt/vol] glucose, 1× high-nitrate salts, 1× trace elements) for 48 h at 37°C under agitation, with the hits selected, according to the toxicity criteria, at various concentrations. […] After that, the resultant hyphal pellet was used for lipid extraction. Then, the total lipid was extracted as described by Singh et al. ([39]). The dried samples were resuspended in 2:1 chloroform-methanol for liquid chromatography-mass spectrometry (LC-MS) analysis. A standard ErgGlc from Avanti Polar Lipids was used as a control for the calibration curve. Data were normalized to the total inorganic phosphate content in the sample.

[4] = system: wild-type Af; experiment: Filamentation assay (hyphal length); type: cell-based, Aspergillus fumigatus; details: 12 h
Procedure: To evaluate hyphal growth, conidial suspensions of the Af wild-type strain ΔKu80pyrG1a and the Δsgla and Δsgla+SGLA strains were obtained as described above. Then, the assay conditions were performed as previously described by Fernandes et al. ([16]). For that, 1 × 10^5 conidia of strain ΔKu80pyrG1a were inoculated onto a glass-bottom dish containing 2 mL of MM or MM+UU with and without the experimental compounds in various concentrations and grown at 37°C for 10 to 12 h. MM broth without the compounds were used for the mutant and the reconstituted strains. The living hyphae growing attached to the glass were analyzed by differential inference contrast (DIC) microscopy using a Zeiss Observer D.1 microscope, and the hyphal length was measured using ImageJ software.

[5] = system: Af wild-type strain; experiment: Mouse model of pulmonary aspergillosis, survival; type: in vivo, CBA/J mice
Procedure: Male and female CBA/J mice 5 to 6 weeks old were purchased from Envigo and allowed 1 week to acclimate upon arrival. One day prior to infection, the animals were immunosuppressed with 100 mg/kg of the corticosteroid triamcinolone acetonide (Alfa Aesar) subcutaneously as previously described ([16]). On the day of the infection, the animals were initially anesthetized with a ketamine-xylazine solution (95 mg of ketamine and 5 mg of xylazine per kg of body weight) intraperitoneally and then infected with 2.5 × 10^4 Af wild-type ΔKu80pyrG+ conidia in 20 μL of PBS intranasally. One hour after the procedure, intraperitoneal treatment with hit B (5 and 20 mg/kg/day) and hit C (20 and 60 mg/kg/day) was started and continued until 30 days postinfection. Mice that survived until day 30 were euthanized by CO2 inhalation and used for organ fungal burden determinations. A similar procedure was performed for derivative B7 at a dose of 5 mg/kg/day.

[6] = system: Af wild-type strain; experiment: Lung fungal burden quantification by qPCR; type: in vivo, CBA/J mice; details: hit B 20, hit C 60, B7 5 mg/kg/day intraperitoneally
Procedure: Lung fungal burden was assessed by the determination of the amplification of fungal 18S DNA by qPCR. The lungs of euthanized mice were aseptically removed and immediately frozen in liquid nitrogen. Genomic DNA extraction was carried out as previously described by Malavazi and Goldman ([40]) with modifications. Previous to the genomic DNA extraction, the lungs were lyophilized for 2 to 3 days, ground using 2-mm glass beads, resuspended in 1 mL of lysis buffer, and vortexed thoroughly. One milliliter of phenol-chloroform–isoamyl alcohol (25:24:1), stabilized and saturated with 100 mM Tris-EDTA to pH 8.0 (Sigma-Aldrich), was added, and the mixture was vortexed for 10 min to extract nucleic acid. The mixture was centrifuged, and the aqueous phase was collected, and the genomic DNA was precipitated with 500 μL isopropanol. The DNA pellet was washed with 500 μL cold 70% ethanol and air dried, and the DNA pellet was resuspended in 100 μL of DNase-free water. The primers Fungal 18S 5′ UTR fw ([…]) and 3′ UTR rv ([…]) and the mouse glyceraldehyde-3-phosphate dehydrogenase (GAPDH) primers 5′ UTR fw ([…]) and 3′ UTR rv ([…]) were amplified using SYBR green PCR master mix (Thermo Fisher Scientific).

[7] = system: human lung epithelial cancer cell line A549; details: 24 h
Procedure: The cells were maintained in Dulbecco’s modified Eagle medium (DMEM) containing 10% fetal bovine serum (FBS) and 1% penicillin-streptomycin. At passage 11, 10^5 cells were transferred into each well of 96-well plates and cultured for 18 to 24 h to allow the cells to adhere to the well surface. Next, the medium was removed, and fresh medium containing the selected compounds at concentration range of 1 to 512 μM was added to the wells. Controls with equivalent serial concentrations of DMSO were also evaluated and compared with a control without DMSO. The plate was incubated at 37°C with 5% CO2. After 24 h, the supernatant was removed and 50 μL of 5 mg/mL 3-(4,5-dimethylthiazol-2-yl)-2,5-diphenyltetrazoliumbromide (MTT) solution in PBS was added to each well. The plates were incubated for an additional 4 h, and the formazan crystals formed inside the cell were dissolved by adding 50 μL DMSO. Next, the absorbance was measured at 570 nm, and the calculated LD50 was divided by the IC50 of each hit in order to determine the SI of each compound.

[8] = system: O=c1ccc2nc3ccc(O[C@@H]4O[C@H](CO)[C@@H](O)[C@H](O)[C@H]4O)cc3oc-2c1; experiment: HTS / resorufin 3β-D-glucopyranoside (ResGlp) enzymatic assay of SglA; type: biochemical, Aspergillus fumigatus; details: other: substrate kinetics, 0.23 pmol of SglA; pH 6.0; 37.0 °C
Procedure: as §1, §2

[9] = ErgGlc as the substrate, read-out: IC50
[10] = substrate in Triton X-100 mixed micelles, 0.11 pmol SglA, 20 min

**Q.** For `CCc1[nH]c2ccc(CNc3cc(C)nc(NC)n3)cc2c1C` [Hit B6, N~4~-[(2-ethyl-3-methyl-1H-indol-5-yl)methyl]-N~2~,6-dimethylpyrimidine-2,4-diamine], which IC50 [1, 9] is on record?
**A.** 9 µM

**Q.** How did the IC50 [1, 9] turn out when `Cc1cc(CNc2ccnc(N)n2)c2[nH]c(C)c(C)c2c1` [Hit B4, N~4~-[(2,3,5-trimethyl-1H-indol-7-yl)methyl]pyrimidine-2,4-diamine] was run?
**A.** > 100 µM

**Q.** With `Cc1[nH]c2ccc(CNc3cc(NCCO)ncn3)cc2c1C` [Hit B2, 2-[(6-{[(2,3-dimethyl-1H-indol-5-yl)methyl]amino}pyrimidin-4-yl)amino]ethanol] as the molecule, how does the IC50 [1, 9] read?
**A.** 15 µM

**Q.** What does the source list for `Cc1[nH]c2ccc(CNc3cc(N)ncn3)cc2c1C` [Hit B]?
**A.** IC50 [2]: 1 µM and 1 to 2 µM; IC50 [1]: 10 µM; IC50 ([1]; ErgGlc as the substrate): low micromolar range; ErgGlc accumulation versus control (untreated wild-type Af) [3]: differed significantly from the control; germination and hyphal growth of Af wild-type conidia ([4]; 50 and 100 μM, 37°C): significantly delays the germination and hyphal growth; survival of animals ([5]; 20 mg/kg/day intraperitoneally, 30 days, immunosuppressed mice): 50%; lung fungal burden of mice that survived 30 days [6]: no fungal burden in the lung tissue

**Q.** For `CC(C)[C@@H](C)/C=C/[C@@H](C)[C@H]1CC[C@H]2C3=CC=C4C[C@@H](O[C@@H]5O[C@H](CO)[C@@H](O)[C@H](O)[C@H]5O)CC[C@]4(C)[C@H]3CC[C@]12C` [ErgGlc, ergosterol 3β-D-glucoside, reference compound], which Km [1, 10] is on record?
**A.** 0.57 ± 0.09 mol%

**Q.** What about the kcat [1, 10] of the same molecule?
**A.** 0.73 ± 0.04 s⁻¹

**Q.** How did the IC50 [1] turn out when `CCc1[nH]c2ccc(CNc3nc(C)cc(NC)n3)cc2c1C` [Hit B7, N~2~-[(2-ethyl-3-methyl-1H-indol-5-yl)methyl]-N~4~,6-dimethylpyrimidine-2,4-diamine] was run?
**A.** 3 µM

**Q.** And the LD50 [7]?
**A.** 200 µM

**Q.** What about the “ErgGlc accumulation compared with hit B” value ([3]; 100 μM) of the same molecule?
**A.** significantly higher accumulation of ErgGlc than treatment with hit B

**Q.** And the “hyphal length compared with hit B” value ([4]; 50 and 100 μM)?
**A.** shorter hyphae than hit B

**Q.** What about the “lung fungal burden of mice that survived 30 days” value [6] of the same molecule?
**A.** full recovery

**Q.** Which IC50 [1, 9] does the source give for `CCc1[nH]c2ccc(CNc3ccnc(N)n3)cc2c1C` [Hit B3, N~4~-[(2-ethyl-3-methyl-1H-indol-5-yl)methyl]pyrimidine-2,4-diamine] here?
**A.** > 100 µM

**Q.** Which results are given for `CC(Cc1ccc2c(c1)OCO2)c1c(-c2ccccc2)ncn1CCO` (centres unmarked) [Hit C]?
**A.** IC50 [2]: 2 µM and 1 to 2 µM; IC50 ([1]; ErgGlc as the substrate): low micromolar range; LD50 [7]: > 200 µM; ErgGlc accumulation versus control (untreated wild-type Af) [3]: differed significantly from the control; hyphal growth ([4]; all concentrations tested (1 to 100 μM)): significantly reduced hyphal growth at all concentrations tested; survival versus infected untreated mice ([5]; 60 mg/kg/day intraperitoneally): significantly prolonged mouse survival; survival of animals ([5]; 60 mg/kg/day intraperitoneally, until day 30 postinfection): 20%; lung fungal burden of mice that survived 30 days [6]: full lung clearance

**Q.** How did the IC50 [1, 9] turn out when `Cc1cc(CNc2cc(N)ncn2)c2[nH]c(C)c(C)c2c1` [Hit B1, N-[(2,3,5-trimethyl-1H-indol-7-yl)methyl]pyrimidine-4,6-diamine] was run?
**A.** > 100 µM

**Q.** How did the IC50 [1, 9] turn out when `Cc1[nH]c2ccc(CNc3cc(N4CCOCC4)ncn3)cc2c1C` [Hit B5, N-[(2,3-dimethyl-1H-indol-5-yl)methyl]-6-morpholin-4-ylpyrimidin-4-amine] was run?
**A.** 15 µM

**Q.** How did the Km [8] turn out when Af SglA (Aspergillus fumigatus Af293) was run?
**A.** 86.2 µM
